Source: patent US20040077674A1, “Mappicine analogs, intermediates in the synthesis of mappicine analogs and methods of synthesis of mappicine analogs” (priority 2002, published 2004)
Where “and” joins values, the source holds several entries; their conditions need not be identical. Equal entries are not always repeated.

What was measured:
[1] = tested on: HIV-1 replication; assay: HIV-1 replication in cultured cells (cell culture viral growth assay); type: cell-based; settings: Human immunodeficiency virus 1; cell culture viral growth assays; read-out: EC50 (μM) against HIV-1 replication
[2] = target: T1, RNase H activity of HIV reverse transcriptase (Human immunodeficiency virus type 1 group M subtype B, UniProt P03366); assay: Fluorescence (FRET)-based RNase H assay of HIV reverse transcriptase; type: biochemical, HIV-1; settings: for remaining activity at 10 µM / Residual activity (%) RNase H: 10 μM inhibitor concentration, activity in presence / in absence of analog x 100; for remaining activity at 10 µM: read-out: Residual activity (%) RNase H; for IC50: in vitro, read-out: IC50 (μM) against HIV RNase H in vitro
T1 construct: 2.5 nM of the p51/p66 RT heterodimer in the assay; made in house

[3] = target: T2, RNA-dependent DNA polymerase activity of HIV reverse transcriptase (Human immunodeficiency virus type 1 group M subtype B, UniProt P03366); assay: RNA-dependent DNA polymerase activity assay of HIV reverse transcriptase; type: biochemical, HIV-1; settings: 10 μM inhibitor concentration, activity in presence / in absence of analog x 100; for remaining activity at 10 µM: read-out: Residual activity (%) Polymerase
T2 construct: made in house
Outline: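 Single-concentration test of mappicine analogs at 10 μM final against the RNA-dependent DNA polymerase activity of HIV RT. Value is % residual activity: polymerase activity with analog divided by activity without analog, ×100.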

[4] = tested on: cells; settings: cited from earlier work
[5] = tested on: HIV-1 replication; settings: published RNase H inhibitors; cited from earlier work

Compound | Residual activity (%) RNase H [2] [%] | Residual activity (%) Polymerase [3] [%] | also measured
CCC(O)c1cc2n(c(=O)c1C)Cc1c-2nc2ccc(NC(=O)OC(C)(C)C)cc2c1[Si](C)(C)C (centres unmarked) [5 (AG 2M), 2-tert-Butyloxycarbonylamino-7-(1-hydroxypropyl)-8-methyl-12-trimethylsilanyl-11H-indolizino [1,2-b]quinolin-9-one] |  |  | EC50 [1]: ~5 µM; remaining activity at 10 µM [2]: 47%; IC50 [2]: < 10 µM and 8 µM; remaining activity at 10 µM [3]: 80%
O=C(O)C(=O)CC(=O)c1ccc(NC(=O)c2ccccc2)s1 [BTOBA, 4-[5-(benzoylamino)thien-2-yl]-2,4-dioxobutanoic acid] |  |  | ability to penetrate cells (in words) [4]: Neither CPHM nor BTOBA are able to penetrate cells; antiviral activity against HIV-1 replication in cultured cells (in words) [5]: cannot inhibit HIV-1 replication in cultured cells
CCc1c2c(nc3ccc(N)cc13)-c1cc(C(O)CC)c(C)c(=O)n1C2 (centres unmarked) [5 (AG 6M), 2-Amino-12-ethyl-7-(1-hydroxypropyl)-8-methyl-1 1H-indolizinol[1,2-b]quinolin-9-one] |  |  | EC50 [1]: ~5 µM; remaining activity at 10 µM [2]: 57%; IC50 [2]: < 10 µM and 10 µM; remaining activity at 10 µM [3]: 76%
CCCCCCc1c2c(nc3ccc(F)cc13)-c1cc(C(O)CCC3CCCCC3)c(C)c(=O)n1C2 (centres unmarked) [5 (8Bδ)] | 112 | 90 | 
CCC(O)c1cc2n(c(=O)c1C)Cc1c-2nc2ccc(OC)cc2c1[Si](C)(C)C(C)(C)C (centres unmarked) [5 (4Dα)] | 79 | 77 | 
COc1ccc2nc3c(c([Si](C)(C)C(C)(C)C)c2c1)Cn1c-3cc(C(O)Cc2ccccc2)c(C)c1=O (centres unmarked) [5 (4Dε)] | 76 | 49 | 
CCCCCCc1c2c(nc3ccc(F)cc13)-c1cc(C(O)CC)c(C)c(=O)n1C2 (centres unmarked) [5 (8Bα)] | 80 | 57 | 
Cc1c(C(=O)C(C)(C)C)cc2n(c1=O)Cc1c-2nc2ccccc2c1-c1ccccc1 [5 (3Aβκ)] | 94 | 64 | 
Cc1ccc2nc3c(c(-c4ccccc4)c2c1)Cn1c-3cc(C(O)Cc2ccccc2)c(C)c1=O (centres unmarked) [5 (3Cε)] | 101 | 76 | 
Cc1ccc2nc3c(c([Si](C)(C)C)c2c1)Cn1c-3cc(C(=O)CCC2CCCCC2)c(C)c1=O [5 (5Cδκ)] | 99 | 59 | 
Cc1c(C(=O)CCC2CCCCC2)cc2n(c1=O)Cc1c-2nc2ccc(F)cc2c1-c1ccccc1 [5 (3Bδκ)] | 93 | 59 | 
CCCCCCc1c2c(nc3ccc(OC)cc13)-c1cc(C(=O)C(C)(C)C)c(C)c(=O)n1C2 [5 (8Dβκ)] | 88 | 90 | 
Cc1c(C(O)C(C)(C)C)cc2n(c1=O)Cc1c-2nc2ccccc2c1[Si](C)(C)C (centres unmarked) [5 (5Aβ)] | 77 | 103 | 
CCC(O)c1cc2n(c(=O)c1C)Cc1c-2nc2ccc(C)cc2c1-c1ccccc1 (centres unmarked) [5 (3Cα)] | 96 | 64 | 
Cc1ccc2nc3c(c([Si](C)(C)C(C)(C)C)c2c1)Cn1c-3cc(C(=O)C(C)(C)C)c(C)c1=O [5 (4Cβκ)] | 65 | 67 | 
CCC(=O)c1cc2n(c(=O)c1C)Cc1c-2nc2ccccc2c1[Si](C)(C)C [5 (5Aακ)] | 103 | 91 | 
Cc1c(C(=O)CCC2CCCCC2)cc2n(c1=O)Cc1c-2nc2ccccc2c1[Si](C)(C)C [5 (5Aδκ)] | 75 | 90 | 
CCC(=O)c1cc2n(c(=O)c1C)Cc1c-2nc2ccc(OC)cc2c1[Si](C)(C)C(C)(C)C [5 (4Dακ)] | 77 | 80 | 
CCCCCCc1c2c(nc3ccc(C)cc13)-c1cc(C(=O)Cc3ccccc3)c(C)c(=O)n1C2 [5 (8Cεκ)] | 86 | 66 | 
Cc1c(C(=O)CCC2CCCCC2)cc2n(c1=O)Cc1c-2nc2ccccc2c1-c1ccccc1 [5 (3Aδκ)] | 73 | 66 | 
COc1ccc2nc3c(c(-c4ccccc4)c2c1)Cn1c-3cc(C(O)CCC2CCCCC2)c(C)c1=O (centres unmarked) [5 (3Dδ)] | 67 | 60 | 
Cc1c(C(O)Cc2ccccc2)cc2n(c1=O)Cc1c-2nc2ccccc2c1[Si](C)(C)C(C)(C)C (centres unmarked) [5 (4Aε)] | 93 | 83 | 
CCC(=O)c1cc2n(c(=O)c1C)Cc1c-2nc2ccc(C)cc2c1-c1ccccc1 [5 (3Cακ)] | 99 | 71 | 
CCC(=O)c1cc2n(c(=O)c1C)Cc1c-2nc2ccccc2c1[Si](C)(C)C(C)(C)C [5 (4Aακ)] | 76 | 43 | 

Compound | Residual activity (%) RNase H [2] [%] | Residual activity (%) Polymerase [3] [%] | also measured
CCCCCCc1c2c(nc3ccc(C)cc13)-c1cc(C(=O)CCC3CCCCC3)c(C)c(=O)n1C2 [5 (8Cδκ)] | 95 | 79 | 
CCCCCCc1c2c(nc3ccc(OC)cc13)-c1cc(C(=O)CCC3CCCCC3)c(C)c(=O)n1C2 [5 (8Dδκ)] | 90 | 65 | 
CCc1c2c(nc3ccc(O)cc13)-c1cc(C(O)CC)c(C)c(=O)n1C2 (centres unmarked) [5 (AG 8M), 12-Ethyl-2-hydroxy-7-(1-hydroxypropyl)-8-methyl-11H-indolizino[1,2-b]quinolin-9-one] |  |  | remaining activity at 10 µM [2]: 87%; remaining activity at 10 µM [3]: 69%
CCCCCCc1c2c(nc3ccc(OC)cc13)-c1cc(C(O)CCC3CCCCC3)c(C)c(=O)n1C2 (centres unmarked) [5 (8Dδ)] | 63 | 81 | 
Cc1c(C(O)C(C)(C)C)cc2n(c1=O)Cc1c-2nc2ccc(F)cc2c1[Si](C)(C)C (centres unmarked) [5 (5Bβ)] | 102 | 74 | 
COc1ccc2nc3c(c([Si](C)(C)C(C)(C)C)c2c1)Cn1c-3cc(C(O)CCC2CCCCC2)c(C)c1=O (centres unmarked) [5 (4Dδ)] | 87 | 51 | 
CCCCCCc1c2c(nc3ccc(C)cc13)-c1cc(C(=O)C(C)(C)C)c(C)c(=O)n1C2 [5 (8Cβκ)] | 95 | 66 | 
CCC(O)c1cc2n(c(=O)c1C)Cc1c-2nc2ccc(F)cc2c1[Si](C)(C)C(C)(C)C (centres unmarked) [5 (4Bα)] | 108 | 98 | 
Cc1c(C(=O)C(C)(C)C)cc2n(c1=O)Cc1c-2nc2ccccc2c1[Si](C)(C)C(C)(C)C [5 (4Aβκ)] | 70 | 79 | 
2-Acetoxy-12-ethyl-7-(1-hydroxypropyl)-8-methyl-1H-indolizino [1,2-b]quinolin-9-one [5 (AG 7M)] | 63 | 99 | 
Cc1c(C(O)Cc2ccccc2)cc2n(c1=O)Cc1c-2nc2ccc(F)cc2c1[Si](C)(C)C (centres unmarked) [5 (5Bε)] | 88 | 49 | 
Cc1ccc2nc3c(c([Si](C)(C)C(C)(C)C)c2c1)Cn1c-3cc(C(O)CCC2CCCCC2)c(C)c1=O (centres unmarked) [5 (4Cδ)] | 109 | 61 | 
CCc1c2c(nc3ccccc13)-c1cc(C(O)CC)c(C)c(=O)n1C2 (centres unmarked) [5 (AG 4M)] | 74 | 100 | 
CCCCCCc1c2c(nc3ccc(F)cc13)-c1cc(C(=O)CCC3CCCCC3)c(C)c(=O)n1C2 [5 (8Bδκ)] | 95 | 80 | 
CCC(O)c1cc2n(c(=O)c1C)Cc1c-2nc2ccccc2c1-c1ccccc1 (centres unmarked) [5 (3Aα)] | 97 | 90 | 
CCCCCCc1c2c(nc3ccc(OC)cc13)-c1cc(C(=O)CC)c(C)c(=O)n1C2 [5 (8Dακ)] | 84 | 51 | 
CCCCCCc1c2c(nc3ccccc13)-c1cc(C(O)CC)c(C)c(=O)n1C2 (centres unmarked) [5 (8Aα)] | 83 | 42 | 
CCCCCCc1c2c(nc3ccccc13)-c1cc(C(=O)CCC3CCCCC3)c(C)c(=O)n1C2 [5 (8Aδκ)] | 97 | 63 | 
COc1ccc2nc3c(c([Si](C)(C)C(C)(C)C)c2c1)Cn1c-3cc(C(=O)C(C)(C)C)c(C)c1=O [5 (4Dβκ)] | 97 | 64 | 
Cc1ccc2nc3c(c(-c4ccccc4)c2c1)Cn1c-3cc(C(O)C(C)(C)C)c(C)c1=O (stereo not drawn) [5 (30β)] | 84 | 70 | 
Cc1c(C(O)CCC2CCCCC2)cc2n(c1=O)Cc1c-2nc2ccccc2c1[Si](C)(C)C (centres unmarked) [5 (5Aδ)] | 78 | 83 | 
Cc1c(C(O)C(C)(C)C)cc2n(c1=O)Cc1c-2nc2ccc(F)cc2c1[Si](C)(C)C(C)(C)C (centres unmarked) [5 (4Bβ)] | 113 | 49 | 
CCCCCCc1c2c(nc3ccccc13)-c1cc(C(O)Cc3ccccc3)c(C)c(=O)n1C2 (centres unmarked) [5 (8Aε)] | 71 | 58 | 
